According to patent publication US20120122225A1, “CARRIER PEPTIDE FRAGMENT AND USE THEREOF” (TOAGOSEI CO. LTD., priority 2009, published 2012):
* marks the point of attachment. FITC = O=C1OC2(c3ccc(O)cc3Oc3cc(O)ccc32)c2ccc(NC(=S)*)cc21; Ahx = NCCCCCC(=O)O

Columns and labels:
[1] = test system: Human neonate foreskin fibroblasts (ATCC Catalogue No. CRL-2097); test: Evaluation of cell membrane permeability function (1), confocal laser scanning microscopy of fluorescently labeled peptide; assay type: cell-based; conditions: 1 μM sample
Method: Human neonate foreskin fibroblasts (ATCC Catalogue No. CRL-2097) were used as the eukaryotic cells, and the cell membrane permeability capability of the two samples (constructs for transferring a foreign substance) obtained in Example 1 above was investigated.
More specifically, the abovementioned fibroblasts were cultured in a liquid mixture of 90% Eagle MEM culture medium (containing 0.1% nonessential amino acids, 2 mM L-glutamine, 1 mM sodium pyruvate, and 1.5 g/L sodium hydrogen carbonate) and 10% serum (FBS) as the culture medium.
The cultured cells were trypsinized for 1 min at 37° C. with a 0.25% trypsin solution. After the abovementioned treatment, the trypsin was deactivated with FBS-containing medium, and a cell suspension (test sample for foreign substance transfer) was prepared by adjusting the cell concentration to approximately 5×10^4 cells/mL with the culture medium.
Next, 0.5 mL of the abovementioned cell suspension was placed in a designated cell culturing container (culture slide with a surface coating of 0.1% gelatin), and the cells were incubated overnight at 37° C. in a 5% CO2 atmosphere. After incubation the medium was replaced with fresh culture medium, and the 1 mM sample solutions of each of the samples prepared in abovementioned Example 1 were added to a cell culture container so that the final sample concentration (peptide concentration) would be 1 μM. In this case 0.5 μL of sample solution was added to the container. Then the samples were incubated at 37° C. for either 1 or 4 hours in a 5% CO2 atmosphere.
The cells after 1 hour of culture and the cells after 4 hours of culture were each rinsed in PBS (phosphate buffered saline) and fixed with methanol (on ice for 10 min).
Next the methanol-fixed samples (cells) were mounted using Prolong® Gold Antifade Reagent (Invitrogen) that contains the nuclear stain DAPI (4′,6-diamidino-2-phenylindole). Then the localization within the cells of the peptide bonded to the fluorescent dye (i.e., fluorescently labeled peptide) in each test sample (i.e., the abovementioned mounted test samples after methanol fixation) was verified using a confocal scanning laser microscope.
FIGS. 1 and 2 are micrographs showing the results when abovementioned Sample No. 1 was added to the liquid suspension of cells.

[2] = test system: human iPS cells (cell line 201B2-082008KU); test: Evaluation of cell membrane permeability function (2), confocal laser scanning microscopy of fluorescently labeled peptide; assay type: cell-based; conditions: 1 μM sample; for penetration of the cell membrane from outside the cell / transfer into the cells: 1 hour culture (FIGS. 3, 4), methanol fixed
Excerpt: The target cells for transferring the foreign substance were changed from human neonate foreskin fibroblasts to human iPS cells (human induced pluripotent stem cells), and the cell membrane permeability capability of the two samples (constructs for transferring a foreign substance) obtained in Example 1 above was investigated. It should also be noted that the iPS cells (cell line 201B2-082008KU) and the mouse embryonic fibroblast feeder cells (cell line SNL 76/7, hereinafter “MEF”) used in this example were provided by the Yamanaka Research Laboratory of the Institute for Frontier Medical Sciences, Kyoto University (professor Shinya Yamanaka).
First the obtained MEF were inactivated by a mitomycin C treatment (3 hours) and then trypsinized in a 0.25% trypsin solution containing 1 mM EDTA. After the above treatment, the trypsin was deactivated with culture medium containing FBS, and the MEF were adjusted to a suitable cell density using D-MEM medium (Dulbecco's Modified Eagle Medium: Gibco) containing MEF culture medium (7% FBS: Gibco), 2 mM L-glutamine (Gibco), 50 units/mL penicillin, and 50 μg/mL streptomycin (Gibco), and the abovementioned MEF were seeded onto a culture container (in the form of a culture slide or plate) with a surface coating of 0.1% gelatin. In this case, the MEF were seeded so that the cell density would be approximately 1.25×10^5 cells/mL. Next, the abovementioned cell culture containers were incubated overnight at 37° C. in a 5% CO2 atmosphere.
Thereafter, the feeder cells were prepared by removing the MEF culture medium and rinsing with PBS.
Separately, CTK solution (0.25% trypsin solution containing 0.1 mg/mL collagenase IV (Gibco), 1 mM calcium chloride, and 20% KSR (KnockOut® Serum Replacement)) was added to the obtained iPS cell line, the MEF were peeled therefrom, and the cells were rinsed with PBS.
Next, 1 mL hESC culture medium (i.e., human ES cell medium, in this case, DMEM/F12 culture medium (Gibco) containing 20% KSR (Gibco), 2 mM L-glutamine (Gibco), 0.1% nonessential amino acids (Gibco), 0.1 mM 2-mercaptoethanol (Gibco), 50 units/mL penicillin, and 50 μg/mL streptomycin (Invitrogen, 4 ng/mL bFGF (basic fibroblast growth factor)) was added, the iPS cells were peeled off using a cell scraper, and the colony was broken apart by gentle pipetting.
A suspension of iPS cells obtained in this manner was seeded onto the feeder cells in the culture containers that had been prepared as described above. Then, the abovementioned hESC medium was added, and the cell culture containers were incubated overnight at 37° C. in a 5% CO2 atmosphere.
After incubation overnight, the culture medium was removed from the culture containers, and the abovementioned hESC medium to which one of the 1 mM sample solutions prepared in abovementioned Example 1 had been added to make a final sample concentration (pipetted concentration) of 1 μM was added to the culture containers. Then the samples were incubated at 37° C. for either 1 or 4 hours in a 5% CO2 atmosphere.
The cells after 1 hour of culture and cells after 4 hours of culture were each rinsed in PBS (phosphate buffered saline) and fixed with methanol (on ice for 10 min).
Next, the same treatment as in Example 2 was performed, and the localization within the iPS cells of the peptide that was bonded to the fluorescent dye (i.e., fluorescently labeled) was verified using a confocal scanning laser microscope. FIG. 3 is a micrograph showing the results after 1 hour of culture of the cell suspension to which abovementioned Sample No. 1 had been added, and FIG. 4 is a micrograph after 1 hour of culture of the cell suspension to which abovementioned Sample No. 2 had been added.

Substance	cell membrane permeability [1]	translocation into the nucleus (DAPI nuclear staining) ([1]; 1 or 4 hours culture)	penetration of the cell membrane from outside the cell / transfer into the cells ([1]; 1 or 4 hours culture, methanol fixed)	cell membrane permeability [2]	translocation into the nucleus (DAPI nuclear staining) [2]	penetration of the cell membrane from outside the cell / transfer into the cells [2]
(FAM)-WRRQARFK [Sample No. 1]	exhibited excellent cell membrane permeability	had translocated into the nucleus	penetrated the cell membrane from outside the cell rapidly after it was added, and thus was transferred into the cells	exhibited excellent cell membrane permeability	had further translocated into the nucleus	penetrated the cell membrane from outside the cell rapidly after addition and were transferred into the cells
(FITC)-(Acp)-WRRQARFKGTLKERCLQVVRSLVK ({FITC-Ahx}-WRRQARFKGTLKERCLQVVRSLVK-NH2; SMILES CC(C)C[C@H](NC(=O)[C@H](CS)NC(=O)[C@H](CCCNC(=N)N)NC(=O)[C@H](CCC(=O)O)NC(=O)[C@H](CCCCN)NC(=O)[C@H](CC(C)C)NC(=O)[C@@H](NC(=O)CNC(=O)[C@H](CCCCN)NC(=O)[C@H](Cc1ccccc1)NC(=O)[C@H](CCCNC(=N)N)NC(=O)[C@H](C)NC(=O)[C@H](CCC(N)=O)NC(=O)[C@H](CCCNC(=N)N)NC(=O)[C@H](CCCNC(=N)N)NC(=O)[C@H](Cc1c[nH]c2ccccc12)NC(=O)CCCCCNC(=S)Nc1ccc2c(c1)C(=O)OC21c2ccc(O)cc2Oc2cc(O)ccc21)[C@@H](C)O)C(=O)N[C@@H](CCC(N)=O)C(=O)N[C@H](C(=O)N[C@H](C(=O)N[C@@H](CCCNC(=N)N)C(=O)N[C@@H](CO)C(=O)N[C@@H](CC(C)C)C(=O)N[C@H](C(=O)N[C@@H](CCCCN)C(N)=O)C(C)C)C(C)C)C(C)C) [Sample No. 2, FITC bonded via linker Acp (6-aminohexanoic acid) to the N-terminus of Peptide 2; construct for transferring a foreign substance]	exhibited excellent cell membrane permeability			exhibited excellent cell membrane permeability	had further translocated into the nucleus	penetrated the cell membrane from outside the cell rapidly after addition and were transferred into the cells
